Drawing on ChEMBL document CHEMBL3739345, “Design and synthesis of potent and selective inhibitors of BRD7 and BRD9 bromodomains” (Medchemcomm, 2015), this text covers Activity for one compound.

The source made the active and inactive calls. The calls are words filed in the database; no cut-off is given here.

Test [1] concerns the target Bromodomain-containing protein 4 (Homo sapiens, UniProt O60885). Nature of the test: Binding affinity to human BRD4 at 15 uM by isothermal titration calorimetry. For orientation: ITC needs no label: the signal is the heat of the interaction.
Test [2] addresses T1, Bromodomain-containing protein 1 (Homo sapiens) (UniProt O95696).
T1 sequence (whole entry): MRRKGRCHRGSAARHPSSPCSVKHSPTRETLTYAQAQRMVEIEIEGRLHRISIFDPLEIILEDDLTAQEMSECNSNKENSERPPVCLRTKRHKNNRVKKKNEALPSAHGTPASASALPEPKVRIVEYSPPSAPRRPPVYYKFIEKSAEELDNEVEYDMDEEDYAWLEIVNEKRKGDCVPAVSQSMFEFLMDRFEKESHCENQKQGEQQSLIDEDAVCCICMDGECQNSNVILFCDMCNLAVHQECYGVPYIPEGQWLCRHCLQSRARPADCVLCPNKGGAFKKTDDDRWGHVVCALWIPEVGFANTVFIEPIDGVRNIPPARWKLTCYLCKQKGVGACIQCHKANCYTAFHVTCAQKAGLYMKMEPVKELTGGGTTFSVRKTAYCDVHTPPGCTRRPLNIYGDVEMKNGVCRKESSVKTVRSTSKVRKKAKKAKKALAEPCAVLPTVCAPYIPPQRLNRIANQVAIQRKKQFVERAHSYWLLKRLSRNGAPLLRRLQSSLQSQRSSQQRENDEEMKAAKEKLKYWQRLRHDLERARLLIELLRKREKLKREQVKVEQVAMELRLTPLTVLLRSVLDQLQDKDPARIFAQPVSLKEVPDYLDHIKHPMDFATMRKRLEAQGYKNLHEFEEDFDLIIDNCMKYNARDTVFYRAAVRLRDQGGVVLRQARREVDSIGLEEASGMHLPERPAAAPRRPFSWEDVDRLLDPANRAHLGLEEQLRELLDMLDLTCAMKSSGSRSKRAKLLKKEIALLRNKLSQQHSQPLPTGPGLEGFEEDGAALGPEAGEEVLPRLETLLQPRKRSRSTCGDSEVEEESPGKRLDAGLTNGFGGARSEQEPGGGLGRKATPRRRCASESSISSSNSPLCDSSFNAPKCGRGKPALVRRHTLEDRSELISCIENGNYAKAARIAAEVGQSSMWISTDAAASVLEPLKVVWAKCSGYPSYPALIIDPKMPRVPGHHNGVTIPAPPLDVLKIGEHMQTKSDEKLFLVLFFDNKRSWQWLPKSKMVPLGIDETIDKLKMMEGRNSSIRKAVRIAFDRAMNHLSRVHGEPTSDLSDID
Nature of the test: Binding affinity to human BRD1 at 10 uM by differential scanning fluorimetry. A general note: In DSF a fluorescence change marks the thermal transition of the protein.

Regarding `CC(=O)c1cc(-c2cccc3nccn23)c2cc(N3CCOCC3)ccn12`, in test [1], the result was inactive. Further, the result in test [2] was Active.
